Measured values taken from publication PMC5218480 (PLoS ONE, 2017).

Test system: MV-4-11 cells
Experiment: Gene expression microarray analysis (Affymetrix PrimeView) and GSEA
Assay type: cell-based, human
Set-up: RFU PODN (11730768_x_at) / Fold change /veh PODN (11730768_x_at) / RFU LINC00158 (11744669_a_at) / Fold change /veh LINC00158 (11744669_a_at) / RFU DUSP10 (11751237_a_at) / Fold change /veh DUSP10 (11751237_a_at) / RFU ID3 (11757404_x_at) / Fold change /veh ID3 (11757404_x_at) / RFU PLEKHG5 (11737974_s_at) / Fold change /veh PLEKHG5 (11737974_s_at) / RFU LRRC4B (11730491_at) / Fold change /veh LRRC4B (11730491_at) / RFU GIMAP4 (11747438_a_at) / Fold change /veh GIMAP4 (11747438_a_at) / RFU KRT8 (11758183_x_at) / Fold change /veh KRT8 (11758183_x_at) / RFU CNN1 (11734310_a_at) / Fold change /veh CNN1 (11734310_a_at) / RFU VPS37D (11726825_at) / Fold change /veh VPS37D (11726825_at) / RFU C10orf10 (11716522_x_at) / Fold change /veh C10orf10 (11716522_x_at) / RFU KIR2DL2 /// KIR2DL4 /// KIR2DL5A /// KIR2DL5B /// KIR2DS1 /// KIR2DS2 /// KIR2DS3 /// KIR2DS4 /// KIR3DL3 /// KIR3DL3 /// KIR3DS1 (11738374_at) / Fold change /veh KIR2DL2 /// KIR2DL4 /// KIR2DL5A /// KIR2DL5B /// KIR2DS1 /// KIR2DS2 /// KIR2DS3 /// KIR2DS4 /// KIR3DL3 /// KIR3DL3 /// KIR3DS1 (11738374_at) / RFU C1QL1 (11718748_at) / Fold change /veh C1QL1 (11718748_at) / RFU TMPRSS4 (11747572_a_at) / Fold change /veh TMPRSS4 (11747572_a_at) / RFU HAMP (11756126_x_at) / Fold change /veh HAMP (11756126_x_at) / RFU RNFT2 (11725882_a_at) / Fold change /veh RNFT2 (11725882_a_at) / RFU NR4A2 (11747474_a_at) / Fold change /veh NR4A2 (11747474_a_at) / RFU ABCC12 (11746883_a_at) / Fold change /veh ABCC12 (11746883_a_at) / RFU TMEM136 (11760407_x_at) / Fold change /veh TMEM136 (11760407_x_at) / RFU CLDN22 /// WWC2 (11732394_at) / Fold change /veh CLDN22 /// WWC2 (11732394_at) / RFU HLA-DPB1 (11760878_x_at) / Fold change /veh HLA-DPB1 (11760878_x_at) / RFU SPINT1 (11716480_a_at) / Fold change /veh SPINT1 (11716480_a_at) / RFU GAP43 (11754022_s_at) / Fold change /veh GAP43 (11754022_s_at) / RFU A4GNT (11735810_at) / Fold change /veh A4GNT (11735810_at) / RFU PRB3 (11715151_x_at) / Fold change /veh PRB3 (11715151_x_at) / RFU TUBB4B (11761932_at) / Fold change /veh TUBB4B (11761932_at) / RFU CAPN14 (11732068_a_at) / Fold change /veh CAPN14 (11732068_a_at) / RFU TMCC2 (11721928_a_at) / Fold change /veh TMCC2 (11721928_a_at) / RFU IRGQ (11745062_a_at) / Fold change /veh IRGQ (11745062_a_at) / RFU FAM174B (11720279_a_at) / Fold change /veh FAM174B (11720279_a_at) / RFU TMPRSS4 (11748680_a_at) / Fold change /veh TMPRSS4 (11748680_a_at) / RFU FAM212B (11763350_a_at) / Fold change /veh FAM212B (11763350_a_at) / RFU PLEKHG5 (11743358_a_at) / Fold change /veh PLEKHG5 (11743358_a_at) / RFU ZSCAN30 (11745921_a_at) / Fold change /veh ZSCAN30 (11745921_a_at) / RFU CMKLR1 (11741424_a_at) / Fold change /veh CMKLR1 (11741424_a_at) / RFU LOC101060620 /// MAPK8IP1 (11723275_at) / Fold change /veh LOC101060620 /// MAPK8IP1 (11723275_at) / RFU SPTSSB (11747773_x_at) / Fold change /veh SPTSSB (11747773_x_at) / RFU PRSS12 (11739890_at) / Fold change /veh PRSS12 (11739890_at) / RFU BIN1 (11741810_x_at) / Fold change /veh BIN1 (11741810_x_at) / RFU WNT11 (11732464_a_at) / Fold change /veh WNT11 (11732464_a_at) / RFU C10orf10 (11716521_a_at) / Fold change /veh C10orf10 (11716521_a_at) / RFU C5orf56 (11738089_at) / Fold change /veh C5orf56 (11738089_at) / RFU CYB561 (11721691_x_at) / Fold change /veh CYB561 (11721691_x_at) / RFU ANKRD19P (11752326_a_at) / Fold change /veh ANKRD19P (11752326_a_at) / RFU OR2T12 /// OR2T33 /// OR2T8 (11738714_s_at) / Fold change /veh OR2T12 /// OR2T33 /// OR2T8 (11738714_s_at) / RFU VCAN (11748164_a_at) / Fold change /veh VCAN (11748164_a_at) / RFU JSRP1 (11732532_at) / Fold change /veh JSRP1 (11732532_at) / RFU KRTAP10-11 (11738290_x_at) / Fold change /veh KRTAP10-11 (11738290_x_at) / RFU MYO3A (11730013_a_at) / Fold change /veh MYO3A (11730013_a_at) / RFU EBF3 (11725865_a_at) / Fold change /veh EBF3 (11725865_a_at) / RFU CAMK2N1 (11719241_x_at) / Fold change /veh CAMK2N1 (11719241_x_at) / RFU C5orf56 (11738088_a_at) / Fold change /veh C5orf56 (11738088_a_at) / RFU OLFML3 (11715873_a_at) / Fold change /veh OLFML3 (11715873_a_at) / RFU LOC100653217 /// NTM (11731650_a_at) / Fold change /veh LOC100653217 /// NTM (11731650_a_at) / RFU MAPK11 (11762145_a_at) / Fold change /veh MAPK11 (11762145_a_at) / RFU FIZ1 (11724087_x_at) / Fold change /veh FIZ1 (11724087_x_at) / RFU OASL (11726364_x_at) / Fold change /veh OASL (11726364_x_at) / RFU SOX15 (11748057_x_at) / Fold change /veh SOX15 (11748057_x_at) / RFU CD79A (11719716_a_at) / Fold change /veh CD79A (11719716_a_at) / RFU HIST1H1D (11736915_at) / Fold change /veh HIST1H1D (11736915_at) / RFU CASKIN2 (11723855_a_at) / Fold change /veh CASKIN2 (11723855_a_at) / RFU LOC730098 (11760151_x_at) / Fold change /veh LOC730098 (11760151_x_at) / RFU OR4N2 (11742367_at) / Fold change /veh OR4N2 (11742367_at) / RFU PRRT2 (11749266_a_at) / Fold change /veh PRRT2 (11749266_a_at) / RFU SNX32 (11753110_a_at) / Fold change /veh SNX32 (11753110_a_at) / RFU CDHR5 (11726645_a_at) / Fold change /veh CDHR5 (11726645_a_at) / RFU RCAN1 (11760418_a_at) / Fold change /veh RCAN1 (11760418_a_at) / RFU FAM167A (11723789_a_at) / Fold change /veh FAM167A (11723789_a_at) / RFU FAM26E (11764081_at) / Fold change /veh FAM26E (11764081_at) / RFU ISYNA1 (11749810_s_at) / Fold change /veh ISYNA1 (11749810_s_at) / RFU ACY1 (11761880_at) / Fold change /veh ACY1 (11761880_at) / RFU 11764098_at / Fold change /veh 11764098_at / RFU SAMD14 (11745864_x_at) / Fold change /veh SAMD14 (11745864_x_at) / RFU NPB (11741838_a_at) / Fold change /veh NPB (11741838_a_at) / RFU TMPRSS6 (11731388_a_at) / Fold change /veh TMPRSS6 (11731388_a_at) / RFU KRTAP10-2 (11738614_at) / Fold change /veh KRTAP10-2 (11738614_at) / RFU ARHGAP8 /// PRR5-ARHGAP8 (11727945_x_at) / Fold change /veh ARHGAP8 /// PRR5-ARHGAP8 (11727945_x_at) / RFU KRTAP5-7 /// NADSYN1 (11734609_at) / Fold change /veh KRTAP5-7 /// NADSYN1 (11734609_at) / RFU RASL12 (11751679_a_at) / Fold change /veh RASL12 (11751679_a_at) / RFU CDKN2B (11736163_a_at) / Fold change /veh CDKN2B (11736163_a_at) / RFU PRF1 (11729649_at) / Fold change /veh PRF1 (11729649_at) / RFU, ZNF638 /// ZNF638-IT1 / Fold change vs veh, ZNF638 /// ZNF638-IT1 / RFU, PANK3 / Fold change vs veh, PANK3 / RFU, SH3YL1 / Fold change vs veh, SH3YL1 / RFU, ZEB2 / Fold change vs veh, ZEB2 / RFU, NRIP1 / Fold change vs veh, NRIP1 / RFU, PTTG1IP / Fold change vs veh, PTTG1IP / RFU, CAPN2 / Fold change vs veh, CAPN2 / RFU, MED14 / Fold change vs veh, MED14 / RFU, SNORA58 / Fold change vs veh, SNORA58 / RFU, C1orf63 / Fold change vs veh, C1orf63 / RFU, LRRFIP1 / Fold change vs veh, LRRFIP1 / RFU, NDUFAF7 / Fold change vs veh, NDUFAF7 / RFU, SLC12A2 / Fold change vs veh, SLC12A2 / RFU, IBTK / Fold change vs veh, IBTK / RFU, ESF1 / Fold change vs veh, ESF1 / Fold change vs veh, TMEM50B / RFU, TAOK1 / Fold change vs veh, TAOK1 / RFU, ACBD3 / Fold change vs veh, ACBD3 / RFU, TMA16 / Fold change vs veh, TMA16 / RFU, RWDD3 / Fold change vs veh, RWDD3 / RFU, BCAT1 / Fold change vs veh, BCAT1 / RFU, EDEM3 / Fold change vs veh, EDEM3 / RFU, TMEM33 / Fold change vs veh, TMEM33 / RFU, WDR75 / Fold change vs veh, WDR75 / RFU, AHCTF1 / Fold change vs veh, AHCTF1 / RFU, TFRC / Fold change vs veh, TFRC / RFU, ZDHHC17 / Fold change vs veh, ZDHHC17 / RFU, NOM1 / Fold change vs veh, NOM1 / RFU, ARL8B / Fold change vs veh, ARL8B / RFU, ZBTB11 / Fold change vs veh, ZBTB11 / RFU, TAMM41 / Fold change vs veh, TAMM41 / RFU, KIAA1704 /// LOC100996395 / Fold change vs veh, KIAA1704 /// LOC100996395 / RFU, ING1 / Fold change vs veh, ING1 / RFU, TRMT61B / Fold change vs veh, TRMT61B / RFU, FUBP3 / Fold change vs veh, FUBP3 / RFU, TP53 / Fold change vs veh, TP53 / RFU, TNKS2 / Fold change vs veh, TNKS2 / RFU, ZFP14 / Fold change vs veh, ZFP14 / RFU, ACTR2 / Fold change vs veh, ACTR2 / RFU, PPP3R1 / Fold change vs veh, PPP3R1 / RFU, PIK3R1 / Fold change vs veh, PIK3R1 / RFU, HNRNPA1 / Fold change vs veh, HNRNPA1 / RFU, RNF170 / Fold change vs veh, RNF170 / RFU, ZNF28 / Fold change vs veh, ZNF28 / RFU, RNGTT / Fold change vs veh, RNGTT / RFU, OGT / Fold change vs veh, OGT / RFU, BRD1 / Fold change vs veh, BRD1 / RFU, MARS / Fold change vs veh, MARS / RFU, ZNF655 / Fold change vs veh, ZNF655 / RFU, FAHD1 / Fold change vs veh, FAHD1 / RFU, BDP1 / Fold change vs veh, BDP1 / RFU, LRRCC1 / Fold change vs veh, LRRCC1 / RFU, ARID1A / Fold change vs veh, ARID1A / RFU, ZNF146 / Fold change vs veh, ZNF146 / RFU, ZNF330 / Fold change vs veh, ZNF330 / RFU, GPN3 / Fold change vs veh, GPN3 / RFU, C9orf123 / Fold change vs veh, C9orf123 / RFU, N4BP2L2 / Fold change vs veh, N4BP2L2 / RFU, ARFIP1 / Fold change vs veh, ARFIP1 / RFU, FAM179B / Fold change vs veh, FAM179B / RFU, BCL10 / Fold change vs veh, BCL10 / RFU, UHRF1BP1L / Fold change vs veh, UHRF1BP1L / RFU, BET1 / Fold change vs veh, BET1 / RFU, CNOT2 / Fold change vs veh, CNOT2 / RFU, ZNF268 / Fold change vs veh, ZNF268 / Fold change vs veh, ZNF507 / RFU, DGCR2 / Fold change vs veh, DGCR2 / RFU, WDSUB1 / Fold change vs veh, WDSUB1 / Fold change vs veh, HSP90B1 /// MIR3652 / RFU, ADSS / Fold change vs veh, ADSS / RFU, GK / Fold change vs veh, GK / RFU, ZNF148 / Fold change vs veh, ZNF148 / RFU, TAF9 / Fold change vs veh, TAF9 / RFU, SLC1A5 / Fold change vs veh, SLC1A5 / RFU, SLMO2 / Fold change vs veh, SLMO2 / RFU, ABCC4 / Fold change vs veh, ABCC4 / RFU, LOC101060439 /// RAP1B / Fold change vs veh, LOC101060439 /// RAP1B / RFU, RFX7 / Fold change vs veh, RFX7 / RFU, GTPBP10 / Fold change vs veh, GTPBP10 / RFU, CNEP1R1 / Fold change vs veh, CNEP1R1 / RFU, BIVM-ERCC5 /// ERCC5 / Fold change vs veh, BIVM-ERCC5 /// ERCC5 / RFU, ILF3 / Fold change vs veh, ILF3 / RFU 11762660_at / Fold change /veh 11762660_at / RFU VCAN (11757783_s_at) / Fold change /veh VCAN (11757783_s_at) / RFU DDX43 (11728927_at) / Fold change /veh DDX43 (11728927_at) / RFU KRT8 (11758188_x_at) / Fold change /veh KRT8 (11758188_x_at) / RFU NKD1 (11759106_at) / Fold change /veh NKD1 (11759106_at) / RFU SRD5A1 (11742802_a_at) / Fold change /veh SRD5A1 (11742802_a_at) / RFU TPSAB1 /// TPSB2 (11721975_s_at) / Fold change /veh TPSAB1 /// TPSB2 (11721975_s_at) / RFU GSTM3 (11746129_a_at) / Fold change /veh GSTM3 (11746129_a_at) / RFU IL23R (11737362_x_at) / Fold change /veh IL23R (11737362_x_at) / RFU TMEM51 (11727254_a_at) / Fold change /veh TMEM51 (11727254_a_at) / RFU PIWIL2 (11732686_x_at) / Fold change /veh PIWIL2 (11732686_x_at) / RFU ORM1 (11744905_x_at) / Fold change /veh ORM1 (11744905_x_at) / RFU CCDC152 (11743942_at) / Fold change /veh CCDC152 (11743942_at) / RFU ECM1 (11717891_a_at) / Fold change /veh ECM1 (11717891_a_at) / RFU IL23R (11748794_a_at) / Fold change /veh IL23R (11748794_a_at) / RFU TNFAIP8L3 (11732012_x_at) / Fold change /veh TNFAIP8L3 (11732012_x_at) / RFU MBOAT4 (11741988_at) / Fold change /veh MBOAT4 (11741988_at) / RFU 11764193_at / Fold change /veh 11764193_at / RFU TMEM53 (11763286_at) / Fold change /veh TMEM53 (11763286_at) / RFU MAGEB2 (11727129_at) / Fold change /veh MAGEB2 (11727129_at) / RFU TMEM200A (11744735_a_at) / Fold change /veh TMEM200A (11744735_a_at) / RFU CCDC152 (11751479_a_at) / Fold change /veh CCDC152 (11751479_a_at) / RFU FAM211A (11726209_a_at) / Fold change /veh FAM211A (11726209_a_at) / RFU RGS16 (11746705_a_at) / Fold change /veh RGS16 (11746705_a_at) / RFU VCAN (11755009_s_at) / Fold change /veh VCAN (11755009_s_at) / RFU RHOB (11743442_s_at) / Fold change /veh RHOB (11743442_s_at) / RFU RGS16 (11720943_a_at) / Fold change /veh RGS16 (11720943_a_at) / RFU RGS16 (11720944_at) / Fold change /veh RGS16 (11720944_at) / RFU, VPS4B / Fold change vs veh, VPS4B / RFU, CREB1 / Fold change vs veh, CREB1 / RFU, DNAJC13 / Fold change vs veh, DNAJC13 / RFU, GNAQ / Fold change vs veh, GNAQ / RFU, CDK5R1 / Fold change vs veh, CDK5R1 / RFU, ZRANB3 / Fold change vs veh, ZRANB3 / RFU, CUL4A / Fold change vs veh, CUL4A / RFU, CCNY / Fold change vs veh, CCNY / RFU, UFL1 / Fold change vs veh, UFL1 / RFU, COG3 / Fold change vs veh, COG3 / RFU, DIAPH2 / Fold change vs veh, DIAPH2 / RFU, SKA2 / Fold change vs veh, SKA2 / RFU, AFF3 / Fold change vs veh, AFF3 / RFU, LMF1 / Fold change vs veh, LMF1 / RFU, IPO11 / Fold change vs veh, IPO11 / RFU, DFFB / Fold change vs veh, DFFB / RFU, FOXP1 / Fold change vs veh, FOXP1 / RFU, CARD8 / Fold change vs veh, CARD8 / RFU, STRN3 / Fold change vs veh, STRN3 / RFU, ADK / Fold change vs veh, ADK / RFU, RASSF2 / Fold change vs veh, RASSF2 / RFU, WIPF1 / Fold change vs veh, WIPF1 / RFU, LARP1B / Fold change vs veh, LARP1B / RFU, RASA1 / Fold change vs veh, RASA1 / RFU, RB1 / Fold change vs veh, RB1 / RFU, PPFIA1 / Fold change vs veh, PPFIA1 / RFU, MAT2A / Fold change vs veh, MAT2A / RFU, CCT5 / Fold change vs veh, CCT5 / RFU, WDR92 / Fold change vs veh, WDR92 / RFU, CUX1 / Fold change vs veh, CUX1 / RFU, TTC7A / Fold change vs veh, TTC7A / RFU, TMEM135 / Fold change vs veh, TMEM135 / RFU, DEPTOR / Fold change vs veh, DEPTOR / RFU, CPM / Fold change vs veh, CPM / RFU, DNAJB6 / Fold change vs veh, DNAJB6 / RFU, CACNA2D3 / Fold change vs veh, CACNA2D3 / RFU, DTX4 / Fold change vs veh, DTX4 / RFU, TFCP2 / Fold change vs veh, TFCP2 / RFU, GMCL1 /// GMCL1P1 / Fold change vs veh, GMCL1 /// GMCL1P1 / RFU, AEBP2 / Fold change vs veh, AEBP2 / RFU, SNHG1 /// SNORD22 /// SNORD25 /// SNORD26 /// SNORD27 /// SNORD28 /// SNORD29 /// SNORD31 / Fold change vs veh, SNHG1 /// SNORD22 /// SNORD25 /// SNORD26 /// SNORD27 /// SNORD28 /// SNORD29 /// SNORD31 / Fold change (Aza/veh), C12orf56 (ProbeSet 11735607_a_at) / Fold change (ACY-1035/veh), C12orf56 (ProbeSet 11735607_a_at) / Fold change (Aza/veh), FGFR1OP (ProbeSet 11751329_s_at) / Fold change (ACY-1035/veh), FGFR1OP (ProbeSet 11751329_s_at) / Fold change (Aza/veh), VPS36 (ProbeSet 11739960_a_at) / Fold change (ACY-1035/veh), VPS36 (ProbeSet 11739960_a_at) / RFU SYPL1 (11715823_x_at) / Fold change /veh SYPL1 (11715823_x_at) / RFU IGFBP7 (11715501_s_at) / Fold change /veh IGFBP7 (11715501_s_at) / RFU REEP3 (11722064_at) / Fold change /veh REEP3 (11722064_at) / RFU IGLL1 (11728026_x_at) / Fold change /veh IGLL1 (11728026_x_at): dose or concentration left out as unconfirmed
Details: MV-4-11 cells, 48 hours

Nc1ccc(-c2cccs2)cc1NC(=O)c1ccc2c(c1)cc(C1CC1)n2CCN1CCOCC1 [ACY-1035]
RFU TMEM51 (11727254_a_at): 14.11 RFU
